Consider six compounds from patent US12071434B2, “Heterocyclic compound” (Takeda Pharmaceutical Company Limited, priority 2018, dated 2024).

Assay [1] concerns mice (C57BL/6J mice). The assay can be described thus: Evaluation of wake-promoting effects by EEG and EMG in mice. Type of assay: in vivo. Particulars: 30 mg/kg, p.o., at zeitgeber time 5; time spent in wakefulness for 2 h after administration; male mice. The protocol: The wake-promoting effects were evaluated by measuring the electroencephalogram (EEG) and electromyogram (EMG) in […] mice (C57BL/6Jmice, CLEA Japan Inc., Tokyo, Japan). Under pentobarbital sodium anesthesia (50 mg/kg, intraperitoneal, Somnopentyl®, Kyoritsu Seiyaku, Tokyo, Japan), […] male […] mice were surgically implanted with EEG electrode and EMG electrode. Bilateral EEG leads (Biotex, Kyoto, Japan) were stereotaxically positioned at the parietal area and secured to the cranium with stainless-steel screws in contact with the dura. Bilateral EMG leads (Biotex) were implanted into the back cervical muscles. After at least a 1-week recovery period in home cages, the […] mice were habituated to the recording chamber located in an electrically shielded soundproof room. After habituated, the cortical EEG and EMG signals were recorded using VitalRecorder® (Kissei Comtec Co., Ltd., Nagano, Japan). The signals were automatically scored in 4 sec epochs by a sleep scoring system (SleepSign®, Kissei Comtec Co., Ltd.). Test compound (30 mg/kg, Table 3X-1) dissolved in a mixed solution containing 10% DMSO, 10% Cremophor EL, 20% PEG400 and 60% H2O, or vehicle (i.e., a mixed solution containing 10% DMSO, 10% Cremophor EL, 20% PEG400 and 60% H2O) was administered orally (p.o.) to the […] mice at zeitgeber time 5 in a volume of 10 mL/kg. The EEG and EMG recordings were performed for 2 h after the compound administration. The time spent in wakefulness for 2 h after administration (% of vehicle treatment) was calculated by using SleepSign.

The target in assay [2] is T1, human orexin type 2 receptor (Homo sapiens, UniProt O43614).
T1 construct: expressed in transfected cells
T1 sequence (O43614 1-444): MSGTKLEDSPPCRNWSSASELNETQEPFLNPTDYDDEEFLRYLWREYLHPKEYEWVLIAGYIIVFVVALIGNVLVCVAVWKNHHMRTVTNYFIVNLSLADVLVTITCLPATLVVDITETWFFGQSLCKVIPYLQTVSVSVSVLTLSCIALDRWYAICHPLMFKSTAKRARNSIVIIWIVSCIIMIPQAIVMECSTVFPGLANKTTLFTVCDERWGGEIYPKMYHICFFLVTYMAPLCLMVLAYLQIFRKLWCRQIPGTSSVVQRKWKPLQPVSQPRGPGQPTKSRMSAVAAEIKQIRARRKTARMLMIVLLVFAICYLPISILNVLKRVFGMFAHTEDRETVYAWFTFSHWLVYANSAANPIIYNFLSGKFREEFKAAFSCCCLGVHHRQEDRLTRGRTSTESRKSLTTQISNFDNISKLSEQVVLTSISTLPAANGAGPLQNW
The experiment in a line: Measurement of orexin type 2 receptor agonist activity (calcium fluorescence, Fluo-4 AM, FDSS) in CHO cells forcibly expressing human OX2 receptor. Type of assay: cell-based. Particulars: test compound 3 μM, DMSO = 0%, orexin A (human) 10 nM = 100%. The essentials: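 CHO-dhfr cells stably expressing human OX2 receptor, loaded with Fluo-4 AM plus probenecid for 30 min at 37 °C, then 30 min at room temperature. Calcium fluorescence read for about 2 min 40 s after compound addition. Activity (%) scaled between DMSO (0%) and 10 nM human orexin A (100%).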

As to `CC(C)n1cnc2c(c1=O)[C@@H](Cc1cccc(-c3cccc(F)c3)c1F)[C@@H](NS(=O)(=O)C1CC1)CC2` [Example 172, N-[(5R,6S)-5-[(2,3′-difluoro[1,1′-biphenyl]-3-yl)methyl]-4-oxo-3-(propan-2-yl)-3,4,5,6,7,8-hexahydroquinazolin-6-yl]cyclopropanesulfonamide], the “Wakefulness time (% of vehicle treatment) (Mean, n = 3)” value in assay [1] is listed as 201.32 % of vehicle treatment. For the same compound, the “0X2R agonist activity (3 μM, %)” value in assay [2] was found to be 95%.
Regarding `CC(C)n1cnc2c(c1=O)[C@@H](Cc1cccc(-c3ccccc3)c1F)[C@@H](NS(=O)(=O)C1CC1)CC2` [Example 176, N-[(5R,6S)-5-[(2-fluoro[1,1′-biphenyl]-3-yl)methyl]-4-oxo-3-(propan-2-yl)-3,4,5,6,7,8-hexahydroquinazolin-6-yl]cyclopropanesulfonamide], in assay [1], the “Wakefulness time (% of vehicle treatment) (Mean, n = 3)” value is 204.27 % of vehicle treatment. The “0X2R agonist activity (3 μM, %)” value in assay [2] was 93%.
Consider `CC(C)n1cnc2c(c1=O)[C@@H](Cc1cccc(-c3ccccc3)c1F)[C@@H](NS(=O)(=O)C1(F)CC1)CC2` [Example 180, 1-fluoro-N-[(5R,6S)-5-[(2-fluoro[1,1′-biphenyl]-3-yl)methyl]-4-oxo-3-(propan-2-yl)-3,4,5,6,7,8-hexahydroquinazolin-6-yl]cyclopropane-1-sulfonamide], for which, in assay [1], the “Wakefulness time (% of vehicle treatment) (Mean, n = 3)” value is 197.28 % of vehicle treatment. Also, in assay [2], the “0X2R agonist activity (3 μM, %)” value is reported as 94%.
Turning to `CC(C)n1cnc2c(c1=O)[C@@H](Cc1cccc(-c3cc(F)cc(F)c3)c1F)[C@@H](NS(=O)(=O)C1CC1)CC2` [Example 195, N-{(5R,6S)-4-oxo-3-(propan-2-yl)-5-[(2,3′,5′-trifluoro[1,1′-biphenyl]-3-yl)methyl]-3,4,5,6,7,8-hexahydroquinazolin-6-yl}cyclopropanesulfonamide], the “Wakefulness time (% of vehicle treatment) (Mean, n = 3)” value in assay [1] is listed as 183.08 % of vehicle treatment. The “0X2R agonist activity (3 μM, %)” value in assay [2] was 94%.
In the case of `[2H]C([2H])([2H])C([2H])(n1cnc2c(c1=O)C(Cc1cccc(-c3ccccc3)c1F)C(NS(=O)(=O)C1CC1)CC2)C([2H])([2H])[2H]` [Example 212, rel-N-{(5R,6S)-5-[(2-fluoro[1,1′-biphenyl]-3-yl)methyl]-4-oxo-3-[(~2~H_7_)propan-2-yl]-3,4,5,6,7,8-hexahydroquinazolin-6-yl}cyclopropanesulfonamide], in assay [2], the “0X2R agonist activity (3 μM, %)” value turned out to be 99%.
Still for that read-out and setting: then `[2H]C([2H])([2H])C([2H])(n1cnc2c(c1=O)C(Cc1cccc(-c3ccccc3)c1F)C(NS(=O)(=O)C1(F)CC1)CC2)C([2H])([2H])[2H]` [Example 213, rel-1-fluoro-N-{(5S,6R)-5-[(2-fluoro[1,1′-biphenyl]-3-yl)methyl]-4-oxo-3-[(~2~H_7_)propan-2-yl]-3,4,5,6,7,8-hexahydroquinazolin-6-yl}cyclopropane-1-sulfonamide], with 105%.
